SMILES strings stand for the structures. pIC50, pKi: −log10 of the molar value.

These results are taken from ChEMBL document CHEMBL1153251, “Biaryl piperidines as potent and selective delta opioid receptor ligands” (Bioorg Med Chem Lett, 2010).

Data set [1] has as its target T1, Delta-type opioid receptor (Homo sapiens, UniProt P41143). Put plainly: Displacement of [3H]diprenorphine from human delta opioid receptor expressed in CHO cells by liquid scintillation counting.
Data set [2] concerns the target Kappa-type opioid receptor (Homo sapiens, UniProt P41145). As to the kind of experiment: Displacement of [3H]diprenorphine from human kappa opioid receptor expressed in CHO cells by liquid scintillation counting.
The target in data set [3] is T1, Delta-type opioid receptor. Put plainly: Antagonist activity at delta opioid receptor by GTPgammaS bunding assay. It counts as functional.
In the next data set the target is Mu-type opioid receptor (Homo sapiens, UniProt P35372). As to the kind of experiment: Displacement of [3H]diprenorphine from human mu opioid receptor expressed in CHO cells by liquid scintillation counting. (In general: In a radioligand displacement assay an active substance lowers the binding of a labelled ligand.)
Data set [4] can be described thus: (§1) Clearance in human liver microsomes. It counts as ADME, Microsome. The following applies: liver microsomes.
For another data set, the system named is Liver microsomes. The data set is described as §1. Format: ADME, Microsome. The following applies: microsomes.

Chain of Mu-type opioid receptor (P35372 whole entry): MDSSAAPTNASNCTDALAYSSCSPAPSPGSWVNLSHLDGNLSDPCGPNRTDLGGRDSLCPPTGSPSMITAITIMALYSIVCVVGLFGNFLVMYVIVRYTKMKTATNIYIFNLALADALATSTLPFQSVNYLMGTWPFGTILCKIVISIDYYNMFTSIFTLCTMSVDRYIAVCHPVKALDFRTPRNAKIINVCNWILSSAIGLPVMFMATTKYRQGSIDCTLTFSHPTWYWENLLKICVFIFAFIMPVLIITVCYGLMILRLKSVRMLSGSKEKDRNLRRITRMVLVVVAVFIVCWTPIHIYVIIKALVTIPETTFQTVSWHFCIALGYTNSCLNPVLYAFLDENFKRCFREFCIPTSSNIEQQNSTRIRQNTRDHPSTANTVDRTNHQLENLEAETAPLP
Chain of Kappa-type opioid receptor (P41145 whole entry): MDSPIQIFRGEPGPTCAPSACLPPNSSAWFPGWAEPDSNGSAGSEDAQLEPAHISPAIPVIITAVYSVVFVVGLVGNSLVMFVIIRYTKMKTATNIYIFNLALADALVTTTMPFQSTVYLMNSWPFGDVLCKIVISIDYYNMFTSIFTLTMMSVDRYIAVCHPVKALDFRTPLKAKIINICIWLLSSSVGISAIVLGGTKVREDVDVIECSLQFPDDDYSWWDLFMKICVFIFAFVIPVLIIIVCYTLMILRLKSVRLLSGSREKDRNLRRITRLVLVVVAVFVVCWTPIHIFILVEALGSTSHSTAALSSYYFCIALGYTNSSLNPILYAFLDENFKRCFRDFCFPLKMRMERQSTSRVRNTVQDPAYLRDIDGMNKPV
T1 sequence (P41143 whole entry): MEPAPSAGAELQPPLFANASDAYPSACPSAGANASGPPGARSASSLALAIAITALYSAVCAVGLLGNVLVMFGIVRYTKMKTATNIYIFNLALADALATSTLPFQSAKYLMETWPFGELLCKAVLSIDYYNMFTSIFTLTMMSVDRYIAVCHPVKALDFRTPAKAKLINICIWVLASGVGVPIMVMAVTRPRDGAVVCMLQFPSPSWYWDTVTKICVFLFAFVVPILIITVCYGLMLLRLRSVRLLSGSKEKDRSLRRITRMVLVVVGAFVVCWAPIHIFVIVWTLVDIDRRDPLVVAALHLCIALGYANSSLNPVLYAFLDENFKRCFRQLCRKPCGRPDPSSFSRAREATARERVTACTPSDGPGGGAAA

Regarding `CCCCN1CCCC(c2ccc(C(=O)N(CC)CC)cc2)(c2cccc(O)c2)C1` (stereo not drawn), the values for the pKi (in data set [1]; in data set [2]; on Mu-type opioid receptor) were 8.21, below 6.05 and below 6.05, respectively. Further, in data set [3], the pIC50 (commonly the negative decadic logarithm of the IC50, by convention in mol/L) is 7.26. Also, in data set [4], the CLint scaled (usually a measure of how fast metabolising enzymes remove a compound, apart from limits set by blood flow) is 113 mL/min/kg.
As to `CCN(C)C(=O)c1ccc(C2(c3cccc(O)c3)CCCN(CC3CC3)C2)cc1` (stereo not drawn), the pKi – broadly, the Ki on a negative log10 scale, so that one unit is a factor of ten – in data set [1] is 8.66; in data set [2] it was 7.18; at Mu-type opioid receptor, 7.28. For the same compound, the CLint scaled in data set [4] was determined as 70 mL/min/kg.
Consider `CCC(O)(CC)c1ccc(C2(c3cccc(C(N)=O)c3)CCN(CC3CC3)CC2)cc1`, for which the pKi in data set [1] is 8.64; in data set [2], 7.10; on Mu-type opioid receptor it was below 6.05. Moreover, in data set [3], the pIC50 was 6.55. In data set [4], this compound showed a CLint scaled of 26.1 mL/min/kg.
Consider `CCCC(C)CN1CCC(c2ccc(C(O)(CC)CC)cc2)(c2cccc(C(N)=O)c2)CC1` (stereo not drawn), for which the negative logarithm of the Ki (pKi) in data set [1] was 8.70; in data set [2] it was 7.35; at Mu-type opioid receptor it was 6.42. Moreover, the pIC50 in data set [3] was 8.33. In data set [4], the CLint scaled stood at 108 mL/min/kg.
`CCN(CC)C(=O)c1ccc(C2(c3cccc(C(N)=O)c3)CCCN(Cc3nccs3)C2)cc1` (stereo not drawn): the pKi was 8.15 in data set [1], below 6.05 in data set [2] and below 6.05 on Mu-type opioid receptor. This compound also had a pIC50 in data set [3] of 7.92. Further, the CL result in the data set with Liver microsomes was “Not Active”.
As to `CC(C)(O)c1ccc(C2(c3cccc(O)c3)CCCN(CC3CC3)C2)cc1` (stereo not drawn), the pKi in data set [1] was 7.41; in data set [2] it was 7.39; at Mu-type opioid receptor it was 6.96. The compound also had a CLint scaled in data set [4] of 22 mL/min/kg.
As for `CCN(CC)C(=O)c1ccc(C2(c3cccc(O)c3)CCN(CC3CC3)CC2)cc1`, the pKi in data set [1] was 8.05; in data set [2] it was 6.36; at Mu-type opioid receptor it was below 6.05. For the same compound, the pIC50 in data set [3] is 6.81. In data set [4], this compound returned a CLint scaled of 62.9 mL/min/kg.
Regarding `CCN(CC)C(=O)c1ccc(C2(c3cccc(O)c3)CCN(CCc3ccccc3)CC2)cc1`, the pKi in data set [1] is 9.05; in data set [2] it was 7.02; at Mu-type opioid receptor it was 7.18. The compound further yielded a CLint scaled in data set [4] of 239 mL/min/kg.
Take `CCCC(C)CN1CCC(c2ccc(C(=O)N(CC)CC)cc2)(c2cccc(O)c2)CC1` (stereo not drawn): the pKi is 8.74 in data set [1], below 6.05 in data set [2] and below 6.05 at Mu-type opioid receptor. Moreover, the CL entry in the data set with Liver microsomes was “Not Active”.
On to `CCN(CC)C(=O)c1ccc(C2(c3cccc(O)c3)CCCN(CC(F)(F)F)C2)cc1` (stereo not drawn), for which the pKi in data set [1] was 8.54; in data set [2], 7.62; at Mu-type opioid receptor, below 6.05. This compound had a CLint scaled in data set [4] above 300 mL/min/kg.
On to `CCCC(C)CN1CCC(c2ccc(C(=O)N(C)C)cc2)(c2cccc(O)c2)CC1` (stereo not drawn), for which the pKi was 7.96 in data set [1], 6.82 in data set [2] and below 6.05 at Mu-type opioid receptor. The compound also showed a pIC50 in data set [3] of 7.14. In addition, in data set [4], the CLint scaled came out at 80 mL/min/kg.
Regarding `CCN(CC)C(=O)c1ccc(C2(c3cccc(O)c3)CCCN(CC3CC3)C2)cc1` (stereo not drawn), the pKi in data set [1] is 9.10; in data set [2] it was 7.62; at Mu-type opioid receptor, 7.46. In addition, in data set [3], the pIC50 is 8.15. The CLint scaled in data set [4] came to 89 mL/min/kg.
Taken in the same sequence, the figures for `CCN(CC)C(=O)c1ccc(C2(c3cccc(O)c3)CCCN(Cc3nccs3)C2)cc1` (stereo not drawn) were 8.46, 6.79, below 6.05, 7.80 and above 300 mL/min/kg.
For `CCN(CC)C(=O)c1ccc(C2(c3cccc(O)c3)CCCN(Cc3ncc[nH]3)C2)cc1` (stereo not drawn), the pKi in data set [1] is 8.92; in data set [2], below 6.05; on Mu-type opioid receptor, below 6.05. The compound also displayed a CLint scaled in data set [4] of 230 mL/min/kg.
Take `C=CCN1CCC(c2ccc(C(=O)N(CC)CC)cc2)(c2cccc(O)c2)CC1`: the values for the pKi (in data set [1]; in data set [2]; at Mu-type opioid receptor) were 8.72, 6.46 and below 6.05, respectively. The CLint scaled in data set [4] turned out to be 34.6 mL/min/kg.
